The values that follow come from patent US7253299B2, “Process for purifying n2-(1(s)-ethoxycarbonyl-3-phenylpropyl)-n6-thifluoroacetyl-l-lysine” (Kaneka Corporation, priority 2001, dated 2007).

Each structure is given as a SMILES string.

The series in a line: Solubility of polymorphs in water/acetonitrile mixed solvent (saturated solution, HPLC). The settings on record: water/acetonitrile mixed solvent (water/acetonitrile volume ratio 0.25), 15° C., ordinary pressure. Format: physicochemical. Here is the method:
A 50 ml four-neck flask was charged with 30 ml of a water/acetonitrile mixed solvent (water/acetonitrile volume ratio 0.25). After cooling the solvent to 5° C. with stirring, 5 g of each of polymorphs (I form, […] and […]) of N^2-(1(S)-ethoxycarbonyl-3-phenylpropyl)-N^6-trifluoroacetyl-L-lysine was added thereto, and the temperature was elevated to a predetermined temperature at a rate of 10° C./hour. After reaching the predetermined temperature, the solution was maintained at that temperature for about 1 hour. A sample of the resulting saturated solution was taken out, and the concentration (% by weight) of N^2-(1(S)-ethoxycarbonyl-3-phenylpropyl)-N^6-trifluoroacetyl-L-lysine was measured by HPLC analysis to determine the solubility at that temperature.
On to `CCOC(=O)[C@H](CCc1ccccc1)N[C@@H](CCCCNC(=O)C(F)(F)F)C(=O)O` [I form, N^2-(1(S)-ethoxycarbonyl-3-phenylpropyl)-N^6-trifluoroacetyl-L-lysine], for which the solubility result was “about 2.5 % by weight”.
As for `CCOC(=O)[C@H](CCc1ccccc1)N[C@@H](CCCCNC(=O)C(F)(F)F)C(=O)O` [II form, N^2-(1(S)-ethoxycarbonyl-3-phenylpropyl)-N^6-trifluoroacetyl-L-lysine], the solubility entry is reported as “about 2.7 % by weight”.
On to `CCOC(=O)[C@H](CCc1ccccc1)N[C@@H](CCCCNC(=O)C(F)(F)F)C(=O)O` [III form, N^2-(1(S)-ethoxycarbonyl-3-phenylpropyl)-N^6-trifluoroacetyl-L-lysine], for which the solubility entry is given as “about 3.1 % by weight”.
